From PMC6044835, “Expression, Purification, and Biochemical Characterization of the Flavocytochrome P450 CYP505A30 from Myceliophthora thermophila” (ACS Omega, 2017)
Read-outs that look alike come from different tables or passages of the source.

What was measured:
[1] = target: T1, CYP505A30 heme domain (Thermothelomyces thermophilus, UniProt G2QDZ3); settings: arachidonic acid-bound heme domain, vs NHE
[2] = tested on: P450 BM3; settings: cited from earlier work
[3] = target: T2, CYP505A30 (Thermothelomyces thermophilus, UniProt G2QDZ3); test: UV–visible spectral binding titration with intact CYP505A30; settings: for Kd: substrate binding to intact CYP505A30, heme absorbance change, 25 °C
[4] = target: T1, CYP505A30 heme domain; test: UV–visible spectral binding titration with CYP505A30 heme domain
[5] = tested on: CYP505A1; test: CYP505A1 dodecanoic acid oxidation product distribution (literature); assay type: biochemical, Fusarium oxysporum; settings: CYP505A1, from literature values
[6] = target: T2, CYP505A30
[7] = target: T1, CYP505A30 heme domain
[8] = target: T2, CYP505A30; remark: listed apart in the source
[9] = tested on: P450 BM3; parameters: method as in PMID 1727637; settings: cited from earlier work
[10] = tested on: CYP505A1; parameters: method as in PMID 11985584; settings: cited from earlier work
[11] = target: T3, heme domain (Thermothelomyces thermophilus, UniProt G2QDZ3); test: UV-visible spectral binding titration of fatty acid substrates (type I heme Soret shift) to ca. 4-6 uM enzyme in 50 mM potassium phosphate pH 7.0 at 25 °C, hyperbolic or Morrison fit.
T3 construct: gene MYCTH_101224; heme domain, amino acids 1-464 (stop codon at Gly465, named D464X), N-terminal hexahistidine tag (pET15b), expressed in E. coli
T3 sequence (G2QDZ3 1-464): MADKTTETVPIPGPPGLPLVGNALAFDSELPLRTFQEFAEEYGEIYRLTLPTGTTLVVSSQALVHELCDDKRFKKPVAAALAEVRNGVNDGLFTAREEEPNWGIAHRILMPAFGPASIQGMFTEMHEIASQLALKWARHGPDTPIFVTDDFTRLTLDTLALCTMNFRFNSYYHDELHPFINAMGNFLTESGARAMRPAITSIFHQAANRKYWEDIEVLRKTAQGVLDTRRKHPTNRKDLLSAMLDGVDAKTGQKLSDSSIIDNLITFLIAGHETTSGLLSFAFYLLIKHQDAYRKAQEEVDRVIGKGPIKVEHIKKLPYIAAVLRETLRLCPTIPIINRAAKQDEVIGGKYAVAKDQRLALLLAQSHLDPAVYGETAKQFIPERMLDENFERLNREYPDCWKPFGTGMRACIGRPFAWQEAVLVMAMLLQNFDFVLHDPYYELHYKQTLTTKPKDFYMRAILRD

[12] = target: T2, CYP505A30; test: as above; parameters: gene MYCTH_101224; intact CYP505A30, amino acids 1-1080, N-terminal hexahistidine tag (pET15b), expressed in E. coli
[13] = target: FMN (flavodoxin-like) domain of human reductase; parameters: method as in PMID 6778861, PMID 11695890, PMID 12600198; settings: cited from earlier work
[14] = tested on: FMN (flavodoxin-like) domain of P450 BM3 reductase; parameters: method as in PMID 6778861, PMID 11695890, PMID 12600198; settings: cited from earlier work
[15] = target: Desulfovibrio vulgaris flavodoxin; settings: D. vulgaris flavodoxin; cited from earlier work
[16] = target: rat CPR; settings: cited from earlier work

T2 sequence (G2QDZ3 entry or part of it): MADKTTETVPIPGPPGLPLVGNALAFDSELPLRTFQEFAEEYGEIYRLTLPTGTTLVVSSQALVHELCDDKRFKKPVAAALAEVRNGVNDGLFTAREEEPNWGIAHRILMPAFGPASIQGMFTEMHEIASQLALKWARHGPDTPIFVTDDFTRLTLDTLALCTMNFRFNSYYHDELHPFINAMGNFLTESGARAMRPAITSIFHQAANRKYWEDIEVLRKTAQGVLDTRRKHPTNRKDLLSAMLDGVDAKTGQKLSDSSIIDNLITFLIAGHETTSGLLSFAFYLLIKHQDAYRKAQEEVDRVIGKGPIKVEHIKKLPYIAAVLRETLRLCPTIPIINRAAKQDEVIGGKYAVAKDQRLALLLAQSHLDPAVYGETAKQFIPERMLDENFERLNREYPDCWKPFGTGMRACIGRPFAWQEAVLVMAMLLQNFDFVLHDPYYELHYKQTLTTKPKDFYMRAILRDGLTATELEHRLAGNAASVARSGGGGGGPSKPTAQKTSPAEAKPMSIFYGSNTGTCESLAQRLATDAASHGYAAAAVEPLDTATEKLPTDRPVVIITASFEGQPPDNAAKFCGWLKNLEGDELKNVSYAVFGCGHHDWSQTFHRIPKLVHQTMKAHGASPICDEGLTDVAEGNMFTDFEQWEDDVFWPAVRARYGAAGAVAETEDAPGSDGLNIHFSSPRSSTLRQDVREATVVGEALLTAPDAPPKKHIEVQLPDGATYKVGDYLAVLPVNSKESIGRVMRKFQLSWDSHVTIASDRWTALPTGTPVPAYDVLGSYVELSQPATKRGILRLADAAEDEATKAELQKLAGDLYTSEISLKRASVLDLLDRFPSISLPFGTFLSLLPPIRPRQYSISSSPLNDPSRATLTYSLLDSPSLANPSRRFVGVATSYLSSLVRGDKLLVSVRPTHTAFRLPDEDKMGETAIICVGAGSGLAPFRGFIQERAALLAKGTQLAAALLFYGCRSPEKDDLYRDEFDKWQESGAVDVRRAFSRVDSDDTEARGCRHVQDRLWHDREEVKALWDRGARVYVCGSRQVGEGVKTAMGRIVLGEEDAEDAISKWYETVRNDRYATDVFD

CCCCC/C=C\C/C=C\C/C=C\C/C=C\CCCC(=O)O [arachidonic acid]
heme Fe^III/Fe^II midpoint potential E^0′ [1]: −69 ± 3 mV
kcat ([2]; P450 BM3, similar conditions): 285 ± 32 s^–1
rate constant of oxidation ([2]; P450 BM3): > 17 000 min^–1
Kd [3]: 1700 ± 100 nM
HS (%) ([3]; extent of HS heme iron accumulated, intact CYP505A30, estimated to nearest 5%): 60%
Kd [4]: 120 ± 10 nM
HS (%) ([4]; extent of HS heme iron accumulated, heme domain, estimated to nearest 5%): 65%

CCCCCCCCCCCC(=O)O [dodecanoic acid]
ratio ω-1/ω-2 hydroxylated products [5]: 1.5
HS (%) [6]: 10%
HS (%) [7]: 60%
ratio ω-1/ω-2 hydroxylated products ([8]; CYP505A30): 8.8
ω-1 hydroxylated product proportion ([8]; CYP505A30, GC–MS): 88%
ω-2 hydroxylated product proportion ([8]; CYP505A30, GC–MS): ~10%
ω-3 hydroxylated product proportion ([8]; CYP505A30, GC–MS): 2%
ω-1 hydroxylated product proportion ([8]; CYP505A30, GC–MS, listed as lauric acid): approximately 88%
ω-1 hydroxylated product proportion [9]: 48%
ω-2 hydroxylated product proportion [9]: 26%
ω-3 hydroxylated product proportion [9]: 26%
ω-1 hydroxylated product proportion [10]: ~55%
ω-2 hydroxylated product proportion [10]: ~37%
ω-3 hydroxylated product proportion [10]: ~8%
Kd [3]: 6100 ± 400 nM
Kd [4]: 9000 ± 900 nM

CCCCCCCCCCCCCCCC(=O)NCC(=O)O [N-palmitoylglycine (NPG), N-palmitoylglycine]
Kd [11]: 2700 ± 800 nM
Kd [12]: 5400 ± 100 nM

Cc1cc2nc3c(=O)[nH]c(=O)nc-3n(C[C@H](O)[C@H](O)[C@H](O)COP(=O)(O)O)c2cc1C [FMN, flavin mononucleotide]
Kd [13]: 42 ± 7 nM
Kd [14]: 86 ± 14 nM
Kd [15]: 2.4 nM

Cc1cc2nc3c(=O)[nH]c(=O)nc-3n(C[C@H](O)[C@H](O)[C@H](O)COP(=O)(O)OP(=O)(O)OC[C@H]3O[C@@H](n4cnc5c(N)ncnc54)[C@H](O)[C@@H]3O)c2cc1C [FAD, flavin adenine dinucleotide]
binding [16]: subnanomolar
